As a reminder, the EC50 is the concentration needed to bring the measured effect to its halfway point.

For series [1], the system named is circulating lymphocytes. The series is described as follows: Assessment of in vivo efficacy: circulating lymphocytes after oral administration. Also noted: species or system normotensive male Wistar rats. The settings on record: Rattus norvegicus, Lymphocyte; 6 h after oral administration of 10 mg/kg, male Wistar rats, compared to vehicle group; read-out: Lymphocyte counts. As to the method:
The efficacy of the compounds of Formula (I) is assessed by measuring the circulating lymphocytes after oral administration of 3 to 30 mg/kg of a compound of Formula (I) to normotensive male Wistar rats. The animals are housed in climate-controlled conditions with a 12 h-light/dark cycle, and have free access to normal rat chow and drinking water. Blood is collected before and 3, 6 and 24 h after drug administration. Full blood is subjected to hematology using Advia Hematology system (Bayer Diagnostics, Zurich, Switzerland).
All data are presented as mean±SEM. Statistical analyses are performed by analysis of variance (ANOVA) using Statistica (StatSoft) and the Student-Newman-Keuls procedure for multiple comparisons. The null hypothesis is rejected when p<0.05.
Lymphocyte counts 6 h after oral administration have been measured for 23 out of 30 exemplified compounds and are in the range of −42% to −80% with an average of −63%.

Series [2] relates to rat trachea rings. The series is described as follows: Measurement of isometric force development: rat trachea ring constriction. Also noted: species or system Female Wistar rats. Particulars: for potential to constrict rat trachea rings (comparison in words): compared to closest prior art analogues of WO 2008/029371 or to Example 2; for % trachea constriction at 1 μM: compound at 1 μM, in % of the constriction induced by 50 mM KCl. The protocol:
Animals were obtained from RCC Ltd (Füllinsdorf, Switzerland). Female Wistar rats were euthanized by exposure to CO2. The tracheae were excised and rings from the lower segments were prepared. Rings of trachea were suspended in tissue baths (10 mL) containing Krebs-Henseleit buffer of the following composition (mM): NaCl 115; KCl 4.7; MgSO4 1.2; KH2PO4 1.5; CaCl2 2.5; NaHCO3 25; glucose 10. Bathing solution was maintained at 37° C. and aerated with 95% O2/5% CO2 (pH 7.4). A resting force of 2 g (20 mN) was applied to the ring preparation, and changes in force generation were measured using an isometric force recorder (EMKA Technologies Inc, Paris, France). Viability of rings was assessed by exposure to a depolarizing concentration of KCl (50 mM). Contraction of trachea was expressed as a percentage of the response to KCl.
All compounds were prepared as stock solutions of 0.3 mM in pure DMSO. Compounds were added to the bath (10 mL) in a volume of 33 μL to give a final bath concentration of DMSO of 0.33%.
Contraction of trachea was measured for 15 out of 30 exemplified compounds.

The target of series [3] is human S1P1 receptor (Homo sapiens, UniProt P21453). The series is described as follows: GTPγS assay to determine EC50 values. The settings on record: membranes of CHO cells expressing recombinant human S1P1 receptor; 35S-GTPγS binding. It is filed as biochemical. The protocol:
GTPγS binding assays are performed in 96 well microtiter plates (Nunc, 442587) in a final volume of 200 μl, using membrane preparations of CHO cells expressing recombinant human S1P1 receptor. Assay conditions are 20 mM Hepes (Fluka, 54461), 100 mM NaCl (Fluka, 71378), 5 mM MgCl2 (Fluka, 63064), 0.1% BSA (Calbiochem, 126609), 1 μM GDP (Sigma, G-7127), 2.5% DMSO (Fluka, 41644), […] ^35S-GTPγS (Amersham Biosciences, SJ1320). The pH is 7.4. Test compounds are dissolved and diluted in 100% DMSO and pre-incubated at room temperature for 30 min in 150 μl of the above assay buffer, in the absence of ^35S-GTPγS. After addition of 50 μl of ^35S-GTPγS, the assay is incubated for 1 h at rt. The assay is terminated by transfer of the reaction mixture to a Multiscreen plate (Millipore, MAHFC1H60) using a cell harvester from Packard Biosciences, and the plates are washed with ice-cold 10 mM Na2HPO4/NaH2PO4 (70%/30%), dried, sealed at the bottom and, after addition of 25 μl MicroScint20 (Packard Biosciences, order#6013621), sealed on the top. Membrane-bound ^35S-GTPγS is measured with a TopCount from Packard Biosciences.
EC50 is the concentration of agonist inducing 50% of the maximal specific ^35S-GTPγS binding. Specific binding is determined by subtracting non-specific binding from maximal binding. Maximal binding is the amount of cpm bound to the Multiscreen plate in the presence of 10 μM of S1P. Non-specific binding is the amount of binding in the absence of an agonist in the assay.
Agonistic activities (EC50 values) of all exemplified compounds have been measured.
A general note: GTPγS is a poorly hydrolysed GTP analogue; its binding reports G protein activation.

Series [4] has as its system rat trachea rings. The series is described as follows: Measurement of isometric force development: rat trachea ring constriction. Also noted: species or system Female Wistar rats. Particulars: compound at 10 μM; in % of the constriction induced by 50 mM KCl.

A value given as a limit tells only on which side of the number the result lay.

Sequence of human S1P1 receptor (P21453 whole entry): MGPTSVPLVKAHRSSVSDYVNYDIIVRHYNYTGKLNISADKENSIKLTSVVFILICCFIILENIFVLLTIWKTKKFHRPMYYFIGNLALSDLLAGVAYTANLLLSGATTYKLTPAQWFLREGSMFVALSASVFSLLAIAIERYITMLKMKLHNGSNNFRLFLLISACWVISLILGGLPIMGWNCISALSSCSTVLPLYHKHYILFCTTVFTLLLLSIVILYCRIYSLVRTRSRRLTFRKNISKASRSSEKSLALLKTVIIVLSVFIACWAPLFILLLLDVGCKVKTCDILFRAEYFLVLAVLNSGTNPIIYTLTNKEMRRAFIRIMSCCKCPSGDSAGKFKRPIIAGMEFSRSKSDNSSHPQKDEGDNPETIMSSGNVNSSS

Consider `CCc1cc(-c2noc(-c3cc(OC)nc(C(CC)CC)c3)n2)cc(C)c1OC[C@@H](O)CO` [Example 1, (S)-3-(2-Ethyl-4-{5-[2-(1-ethyl-propyl)-6-methoxy-pyridin-4-yl]-[1,2,4]oxadiazol-3-yl}-6-methyl-phenoxy)-propane-1,2-diol], for which the change in vivo at 10 mg/kg in series [1] is -63%. Moreover, in series [2], the “potential to constrict rat trachea rings (comparison in words)” value (“potential to constrict rat trachea rings” below) was “significantly reduced potential to constrict rat trachea rings” and the “% trachea constriction at 1 μM” value was below 5%. Moreover, in series [3], the EC50 amounted to 2.7 nM. Further, in series [4], the “% trachea constriction at 10 μM” value turned out to be 24%.

On to `CCc1cc(-c2noc(-c3cc(OC)nc(C4CCCC4)c3)n2)cc(C)c1OC[C@@H](O)CO` [Example 2, (S)-3-{4-[5-(2-Cyclopentyl-6-methoxy-pyridin-4-yl)-[1,2,4]oxadiazol-3-yl]-2-ethyl-6-methyl-phenoxy}-propane-1,2-diol], for which, in series [1], the change in vivo at 10 mg/kg was -70%. Besides, in series [2], the “potential to constrict rat trachea rings” value was “markedly reduced potential to constrict rat trachea rings” and the “% trachea constriction at 1 μM” value was below 5%. Moreover, the concentration for a half-maximal effect (EC50) in series [3] was 0.9 nM. Besides, the “% trachea constriction at 10 μM” value in series [4] is listed as below 5%.

With `CCc1cc(-c2noc(-c3cc(OC)nc(C(CC)CC)c3)n2)cc(C)c1OC[C@@H](O)CNC(=O)CO` [Example 6, N-[(2S)-3-(2-Ethyl-4-{5-[2-(1-ethyl-propyl)-6-methoxy-pyridin-4-yl]-[1,2,4]oxadiazol-3-yl}-6-methyl-phenoxy)-2-hydroxy-propyl]-2-hydroxy-acetamide], in series [1], the change in vivo at 10 mg/kg was -59%. In addition, in series [2], the “potential to constrict rat trachea rings” value is “significantly reduced potential to constrict rat trachea rings” and the “% trachea constriction at 1 μM” value is reported as below 5%. Besides, the half-maximal effective concentration (EC50) in series [3] was found to be 0.6 nM. Moreover, the “% trachea constriction at 10 μM” value in series [4] was determined as 100%.

For the molecule `CCc1cc(-c2noc(-c3cc(OC)nc(C4CCCCC4)c3)n2)cc(C)c1OC[C@@H](O)CNC(=O)CO` [Example 8, N-((2S)-3-{4-[5-(2-Cyclohexyl-6-methoxy-pyridin-4-yl)-[1,2,4]oxadiazol-3-yl]-2-ethyl-6-methyl-phenoxy}-2-hydroxy-propyl)-2-hydroxy-acetamide], in series [1], the change in vivo at 10 mg/kg is -58%. The “% trachea constriction at 1 μM” value in series [2] is on record as below 5%. The EC50 in series [3] is 10.8 nM.

Consider `CCc1cc(-c2noc(-c3cc(OC)nc(C4CCCC4)c3)n2)cc(C)c1OC[C@@H](O)CN(C)C(=O)CO` [Example 10, N-((2S)-3-{4-[5-(2-Cyclopentyl-6-methoxy-pyridin-4-yl)-[1,2,4]oxadiazol-3-yl]-2-ethyl-6-methyl-phenoxy}-2-hydroxy-propyl)-2-hydroxy-N-methyl-acetamide], for which the change in vivo at 10 mg/kg in series [1] is -68%. For the same molecule, in series [2], the “% trachea constriction at 1 μM” value was below 5%. In addition, in series [3], the EC50 is 2.6 nM. The “% trachea constriction at 10 μM” value in series [4] is listed as below 5%.

As for `COc1cc(-c2nc(-c3cc(C)c(NS(C)(=O)=O)c(Cl)c3)no2)cc(C2CCCC2)n1` [Example 12, N-{2-Chloro-4-[5-(2-cyclopentyl-6-methoxy-pyridin-4-yl)-[1,2,4]oxadiazol-3-yl]-6-methyl-phenyl}-methanesulfonamide], the change in vivo at 10 mg/kg in series [1] is -64%. Also, in series [2], the “% trachea constriction at 1 μM” value was below 5%. In addition, in series [3], the EC50 was found to be 0.3 nM. In addition, the “% trachea constriction at 10 μM” value in series [4] is given as below 5%.

Turning to `COc1cc(-c2nc(-c3cc(C)c(OC[C@@H](O)CO)c(Cl)c3)no2)cc(C2CCCC2)n1` [Example 13, (S)-3-{2-Chloro-4-[5-(2-cyclopentyl-6-methoxy-pyridin-4-yl)-[1,2,4]oxadiazol-3-yl]-6-methyl-phenoxy}-propane-1,2-diol], the change in vivo at 10 mg/kg in series [1] was -60%. For the same molecule, the “% trachea constriction at 1 μM” value in series [2] is listed as below 5%. Also, the EC50 in series [3] was 1 nM.

For the molecule `CCc1cc(-c2noc(-c3cc(CCC(C)C)nc(OC)c3)n2)cc(C)c1OC[C@@H](O)CNC(=O)CO` [Example 16, N-[(2S)-3-(2-Ethyl-4-{5-[2-methoxy-6-(3-methyl-butyl)-pyridin-4-yl]-[1,2,4]oxadiazol-3-yl}-6-methyl-phenoxy)-2-hydroxy-propyl]-2-hydroxy-acetamide], the change in vivo at 10 mg/kg in series [1] is -73%. In series [2], the “potential to constrict rat trachea rings” value was “markedly reduced potential to constrict rat trachea rings” and the “% trachea constriction at 1 μM” value is given as below 5%. Also, the concentration for a half-maximal effect (EC50) in series [3] was found to be 0.7 nM.

For `CCc1cc(-c2noc(-c3cc(OC)nc(C(CC)CC)c3)n2)cc(C)c1NS(C)(=O)=O` [Example 18, N-(2-Ethyl-4-{5-[2-(1-ethyl-propyl)-6-methoxy-pyridin-4-yl]-[1,2,4]oxadiazol-3-yl}-6-methyl-phenyl)-methanesulfonamide], in series [1], the change in vivo at 10 mg/kg was -42%. Further, the “% trachea constriction at 1 μM” value in series [2] is listed as below 5%. Further, the EC50 in series [3] was 2.5 nM. The “% trachea constriction at 10 μM” value in series [4] is on record as below 5%.

Take `CCc1cc(-c2noc(-c3cc(OC)nc(C4CCCC4)c3)n2)cc(C)c1NS(C)(=O)=O` [Example 19, N-{4-[5-(2-Cyclopentyl-6-methoxy-pyridin-4-yl)-[1,2,4]oxadiazol-3-yl]-2-ethyl-6-methyl-phenyl}-methanesulfonamide]: the change in vivo at 10 mg/kg in series [1] is -61%. The “% trachea constriction at 1 μM” value in series [2] is given as below 5%. In addition, the EC50 in series [3] was 1 nM. In addition, the “% trachea constriction at 10 μM” value in series [4] was below 5%.

`CCc1cc(-c2nc(-c3cc(OC)nc(C4CCCC4)c3)no2)cc(C)c1OC[C@@H](O)CO` [Example 21, (S)-3-{4-[3-(2-Cyclopentyl-6-methoxy-pyridin-4-yl)-[1,2,4]oxadiazol-5-yl]-2-ethyl-6-methyl-phenoxy}-propane-1,2-diol]: the change in vivo at 10 mg/kg in series [1] is -62%. In addition, in series [2], the “potential to constrict rat trachea rings” value is recorded as “same low potential to constrict rat trachea rings” and the “% trachea constriction at 1 μM” value is below 5%. For the same molecule, the concentration for a half-maximal effect (EC50) in series [3] stood at 0.7 nM.

As for `CCc1cc(-c2nnc(-c3cc(OC)nc(C4CCCC4)c3)o2)cc(C)c1OC[C@@H](O)CO` [Example 25, (S)-3-{4-[5-(2-Cyclopentyl-6-methoxy-pyridin-4-yl)-[1,3,4]oxadiazol-2-yl]-2-ethyl-6-methyl-phenoxy}-propane-1,2-diol], the change in vivo at 10 mg/kg in series [1] was -51%. Also, in series [2], the “% trachea constriction at 1 μM” value was found to be 53%. Besides, the EC50 in series [3] is 1.9 nM.

The values are drawn from US8658675B2, “Pyridin-4-yl derivatives” (Actelion Pharmaceuticals Ltd., priority 2009, dated 2014).
